The supplement of paper PMC10307832

Legend:
Test in all cases: relative viability (nuclei count vs DMSO), 5 days (fraction); higher = more cells survive
[1] = compound: C/C(=N\NC(=S)N1CCC1)/C2=CC=CC=N2 + Cc1nc(Nc2ncc(C(=O)Nc3c(C)cccc3Cl)s2)cc(N2CCN(CCO)CC2)n1 [Dasatinib] (partner 0.075 µM)
Summary of the method: (§1)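 Lung cancer cell lines were seeded in 1536-well plates and dosed by pin tool the next day, with either a single drug or a fixed anchor-drug dose combined with five library-drug doses (not always all listed) spaced in √10 steps. Five days later, one step fixed the cells and stained their nuclei (final 0.05% Triton X-100, 1% formaldehyde, 1 ug/ml Hoechst), and nuclei were counted on 4× images. Relative viability is the nuclei count in treated wells divided by the count in vehicle wells, and each value is the median of duplicate plates.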

[2] = compound: C/C(=N\NC(=S)N1CCC1)/C2=CC=CC=N2 + CC(C)C[C@H](NC(=O)[C@H](Cc1ccccc1)NC(=O)c1cnccn1)B(O)O [Bortezomib] (partner 0.002 µM)
Summary of the method: as §1

[3] = compound: C/C(=N\NC(=S)N1CCC1)/C2=CC=CC=N2 + CC1(C)CCC(c2ccc(Cl)cc2)=C(CN2CCN(c3ccc(C(=O)NS(=O)(=O)c4ccc(N[C@H](CCN5CCOCC5)CSc5ccccc5)c(S(=O)(=O)C(F)(F)F)c4)cc3)CC2)C1 [Navitoclax] (partner 0.5 µM)
Summary of the method: as §1

[4] = compound: C/C(=N\NC(=S)N1CCC1)/C2=CC=CC=N2 + CCNC(=O)c1noc(-c2cc(C(C)C)c(O)cc2O)c1-c1ccc(CN2CCOCC2)cc1 [Luminespib] (partner 0.01 µM)
Summary of the method: as §1

Row | Cell Line | relative viability ([1]; first compound 0.05 µM) | relative viability ([1]; first compound 0.1581 µM) | relative viability ([1]; first compound 0.5 µM) | relative viability ([1]; first compound 1.581 µM) | relative viability ([1]; first compound 5 µM) | relative viability ([2]; first compound 0.05 µM) | relative viability ([2]; first compound 0.1581 µM) | relative viability ([2]; first compound 0.5 µM) | relative viability ([2]; first compound 1.581 µM) | relative viability ([2]; first compound 5 µM) | relative viability ([3]; first compound 0.05 µM) | relative viability ([3]; first compound 0.1581 µM) | relative viability ([3]; first compound 0.5 µM) | relative viability ([3]; first compound 1.581 µM) | relative viability ([3]; first compound 5 µM) | relative viability ([4]; first compound 0.05 µM) | relative viability ([4]; first compound 0.1581 µM) | relative viability ([4]; first compound 0.5 µM) | relative viability ([4]; first compound 1.581 µM) | relative viability ([4]; first compound 5 µM)
1 | 201T | 0.324 | 0.29 | 0.282 | 0.232 | 0.216 | 0.527 | 0.612 | 0.418 | 0.394 | 0.348 | 0.891 | 1.18 | 0.708 | 0.516 | 0.453 | 0.394 | 0.394 | 0.35 | 0.322 | 0.256
2 | A-427 | 0.144 | 0.124 | 0.132 | 0.0986 | 0.117 | 0.171 | 0.147 | 0.126 | 0.117 | 0.114 | 0.182 | 0.664 | 0.141 | 0.125 | 0.133 | 0.153 | 0.147 | 0.139 | 0.155 | 0.155
3 | ABC-1 | 0.213 | 0.306 | 0.195 | 0.193 | 0.225 | 0.296 | 0.273 | 0.233 | 0.276 | 0.283 | – | – | – | – | – | 0.224 | 0.264 | 0.291 | 0.145 | 0.316
4 | BEN | 0.142 | 0.187 | 0.177 | 0.171 | 0.153 | 0.15 | 0.211 | 0.211 | 0.193 | 0.165 | 0.0467 | 0.0428 | 0.0598 | 0.115 | 0.114 | 0.113 | 0.19 | 0.0969 | 0.12 | 0.0243
5 | CAL-12T | 0.0937 | 0.0896 | 0.054 | 0.0962 | 0.0819 | 0.21 | 0.252 | 0.256 | 0.215 | 0.24 | 0.168 | 0.139 | 0.171 | 0.144 | 0.118 | 0.138 | 0.147 | 0.0989 | 0.105 | 0.112
6 | COR-L23 | 0.102 | 0.095 | 0.0719 | 0.0707 | 0.0937 | 0.12 | 0.139 | 0.114 | 0.077 | 0.0874 | 0.108 | 0.111 | 0.0885 | 0.077 | 0.0905 | 0.102 | 0.0984 | 0.0928 | 0.0829 | 0.0974
7 | COR-L 105 | 0.178 | 0.254 | 0.243 | 0.176 | 0.185 | 0.287 | 0.339 | 0.297 | 0.253 | 0.244 | 0.288 | 0.316 | 0.26 | 0.236 | 0.317 | 0.227 | 0.247 | 0.259 | 0.167 | 0.265
8 | Calu-6 | – | – | – | – | – | 0.165 | 0.182 | 0.188 | 0.171 | 0.175 | 0.106 | 0.122 | 0.123 | 0.141 | 0.126 | – | – | – | – | –
9 | ChaGo-K-1 | 0.137 | 0.178 | 0.17 | 0.131 | 0.168 | 0.285 | 0.462 | 0.285 | 0.221 | 0.318 | 0.293 | 0.47 | 0.27 | 0.218 | 0.374 | 0.167 | 0.172 | 0.174 | 0.139 | 0.161
10 | EBC-1 | – | – | – | – | – | 0.177 | 0.226 | 0.169 | 0.162 | 0.174 | 0.135 | 0.146 | 0.136 | 0.134 | 0.174 | – | – | – | – | –
11 | EKVX | 0.186 | 0.174 | 0.164 | 0.172 | 0.192 | 0.138 | 0.129 | 0.103 | 0.141 | 0.144 | 0.127 | 0.131 | 0.119 | 0.132 | 0.137 | 0.0986 | 0.123 | 0.114 | 0.119 | 0.143
12 | EMC-BAC-2 | 0.149 | 0.169 | 0.175 | 0.129 | 0.186 | 0.104 | 0.142 | 0.149 | 0.174 | 0.16 | 0.25 | 0.645 | 0.162 | 0.21 | 0.168 | 0.217 | 0.225 | 0.177 | 0.19 | 0.232
13 | EPLC-272H | 0.086 | 0.079 | 0.117 | 0.0523 | 0.0578 | 0.116 | 0.155 | 0.133 | 0.131 | 0.116 | 0.108 | 0.356 | 0.138 | 0.125 | 0.151 | 0.105 | 0.105 | 0.192 | 0.203 | 0.165
14 | H3255 | 0.355 | 0.347 | 0.258 | 0.225 | 0.392 | 0.227 | 0.276 | 0.268 | 0.171 | 0.195 | 0.103 | 0.123 | 0.101 | 0.094 | 0.148 | 0.21 | 0.262 | 0.232 | 0.176 | 0.302
